Source: US11866720B2, “Transgenic or non-transgenic plants with mutated protoporphyrinogen oxidase having increased tolerance to herbicides” (priority 2013, dated 2024)
Substitutions are numbered along the chain they refer to. “And” between values parts separate entries of the source, which are not always exact repeats. Equal entries are not always repeated.

Assays:
Experiment in all cases: biochemical
[1] = target: T1, recombinant wildtype and mutated PPO (Amaranthus PPO2: PPX2L_WC SEQ ID NO 2, PPX2L_AC SEQ ID NO 4, dG210 SEQ ID NO 6 & 8) (Amaranthus tuberculatus, UniProt Q0NZW9, D133A/F420M/R128Q); conditions: IC50 (M)
T1 sequence (Q0NZW9 1-534 R128Q/D133A/F420M): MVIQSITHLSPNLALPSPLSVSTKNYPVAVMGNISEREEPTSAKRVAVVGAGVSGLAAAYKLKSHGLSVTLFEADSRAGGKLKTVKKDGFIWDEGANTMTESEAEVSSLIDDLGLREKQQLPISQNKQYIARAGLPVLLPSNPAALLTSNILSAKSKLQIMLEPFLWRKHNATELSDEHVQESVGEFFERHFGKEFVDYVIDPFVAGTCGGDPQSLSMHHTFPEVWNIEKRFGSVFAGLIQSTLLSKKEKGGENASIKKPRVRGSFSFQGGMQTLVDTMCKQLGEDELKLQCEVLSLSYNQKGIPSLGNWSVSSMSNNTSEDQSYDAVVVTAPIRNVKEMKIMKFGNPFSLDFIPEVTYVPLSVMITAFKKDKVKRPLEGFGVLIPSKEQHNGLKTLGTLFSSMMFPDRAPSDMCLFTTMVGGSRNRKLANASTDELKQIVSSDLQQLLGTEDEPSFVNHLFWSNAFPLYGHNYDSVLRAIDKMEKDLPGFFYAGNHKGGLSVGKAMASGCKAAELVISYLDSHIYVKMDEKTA

[2] = target: recombinant wildtype and mutated PPO (Amaranthus PPO2: PPX2L_WC SEQ ID NO 2, PPX2L_AC SEQ ID NO 4, dG210 SEQ ID NO 6 & 8) (Amaranthus tuberculatus, UniProt Q0NZW9, D133A/F420M/R128G); conditions: IC50 (M)
Sequence of recombinant wildtype and mutated PPO (Amaranthus PPO2: PPX2L_WC SEQ ID NO 2, PPX2L_AC SEQ ID NO 4, dG210 SEQ ID NO 6 & 8) (Amaranthus tuberculatus, UniProt Q0NZW9, D133A/F420M/R128G) (Q0NZW9 1-534 R128G/D133A/F420M): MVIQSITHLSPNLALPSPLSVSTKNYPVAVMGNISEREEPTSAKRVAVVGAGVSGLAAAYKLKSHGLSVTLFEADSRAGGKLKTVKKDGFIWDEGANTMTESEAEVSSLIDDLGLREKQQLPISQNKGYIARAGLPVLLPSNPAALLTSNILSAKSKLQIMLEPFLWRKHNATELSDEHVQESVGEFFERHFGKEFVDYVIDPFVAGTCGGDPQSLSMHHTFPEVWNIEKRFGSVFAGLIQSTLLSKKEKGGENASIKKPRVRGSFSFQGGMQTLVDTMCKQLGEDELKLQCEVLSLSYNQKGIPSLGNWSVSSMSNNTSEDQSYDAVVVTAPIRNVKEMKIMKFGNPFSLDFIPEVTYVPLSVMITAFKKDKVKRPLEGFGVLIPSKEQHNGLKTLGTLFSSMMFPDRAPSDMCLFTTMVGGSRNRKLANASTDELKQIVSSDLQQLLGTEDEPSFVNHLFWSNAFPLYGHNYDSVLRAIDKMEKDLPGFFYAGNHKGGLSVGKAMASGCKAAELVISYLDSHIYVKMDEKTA

[3] = target: T2, recombinant wildtype and mutated PPO (Amaranthus PPO2: PPX2L_WC SEQ ID NO 2, PPX2L_AC SEQ ID NO 4, dG210 SEQ ID NO 6 & 8) (Amaranthus tuberculatus, UniProt Q0NZW9, D133A/F420I/R128I); conditions: IC50 (M)
T2 sequence (Q0NZW9 1-534 R128I/D133A/F420I): T1 sequence (Q0NZW9 1-534 R128Q/D133A/F420M) with Q128I, M420I

[4] = target: recombinant wildtype and mutated PPO (Amaranthus PPO2: PPX2L_WC SEQ ID NO 2, PPX2L_AC SEQ ID NO 4, dG210 SEQ ID NO 6 & 8) (Amaranthus tuberculatus, UniProt Q0NZW9, D133A/F420I/R128H); conditions: IC50 (M)
Sequence of recombinant wildtype and mutated PPO (Amaranthus PPO2: PPX2L_WC SEQ ID NO 2, PPX2L_AC SEQ ID NO 4, dG210 SEQ ID NO 6 & 8) (Amaranthus tuberculatus, UniProt Q0NZW9, D133A/F420I/R128H) (Q0NZW9 1-534 R128H/D133A/F420I): as the sequence (Q0NZW9 1-534 R128G/D133A/F420M) above, with G128H, M420I counted along it

[5] = target: recombinant wildtype and mutated PPO (Amaranthus PPO2: PPX2L_WC SEQ ID NO 2, PPX2L_AC SEQ ID NO 4, dG210 SEQ ID NO 6 & 8) (Amaranthus tuberculatus, UniProt Q0NZW9, D133A/F420L/R128H); conditions: IC50 (M)
Sequence of recombinant wildtype and mutated PPO (Amaranthus PPO2: PPX2L_WC SEQ ID NO 2, PPX2L_AC SEQ ID NO 4, dG210 SEQ ID NO 6 & 8) (Amaranthus tuberculatus, UniProt Q0NZW9, D133A/F420L/R128H) (Q0NZW9 1-534 R128H/D133A/F420L): as the sequence (Q0NZW9 1-534 R128G/D133A/F420M) above, with G128H, M420L counted along it

[6] = target: recombinant wildtype and mutated PPO (Amaranthus PPO2: PPX2L_WC SEQ ID NO 2, PPX2L_AC SEQ ID NO 4, dG210 SEQ ID NO 6 & 8) (Amaranthus tuberculatus, UniProt Q0NZW9, R128A/F420V, form not given)
Sequence of recombinant wildtype and mutated PPO (Amaranthus PPO2: PPX2L_WC SEQ ID NO 2, PPX2L_AC SEQ ID NO 4, dG210 SEQ ID NO 6 & 8) (Amaranthus tuberculatus, UniProt Q0NZW9, R128A/F420V, form not given) (Q0NZW9 1-534 R128A/F420V, form open): as the sequence (Q0NZW9 1-534 R128G/D133A/F420M) above, with G128A, A133D, M420V counted along it

[7] = target: T3, recombinant wildtype and mutated PPO (Amaranthus PPO2: PPX2L_WC SEQ ID NO 2, PPX2L_AC SEQ ID NO 4, dG210 SEQ ID NO 6 & 8) (Amaranthus tuberculatus, UniProt Q0NZW9, R128A/F420L, form not given)
T3 sequence (Q0NZW9 1-534 R128A/F420L): T1 sequence (Q0NZW9 1-534 R128Q/D133A/F420M) with Q128A, A133D, M420L

[8] = test system: recombinant wildtype and mutated PPO (Amaranthus PPO2: PPX2L_WC SEQ ID NO 2, PPX2L_AC SEQ ID NO 4, dG210 SEQ ID NO 6 & 8); parameters: species or system Amaranthus tuberculatus

Row | SMILES | IC50 [1] | IC50 [2] | IC50 [3] | IC50 [4] | IC50 [5] | IC50 [6] | IC50 [7] | inhibition (%) at 1 × 10−5M [8]
1 | C#CCN1C(=O)C(F)(F)Oc2cc(F)c(-n3c(=O)n(C)c(=S)n(C)c3=O)cc21 | 1.07e-08 M | 1.26e-08 M | 1.38e-07 M | 8.22e-08 M | 7.98e-08 M |  |  | 
2 | C#CCN1C(=O)C(F)(F)Oc2cc(F)c(-n3c(=O)cc(C(F)(F)F)n(C)c3=O)cc21 |  |  |  |  |  | 6.33 nM | 16.2 nM | 
3 | C#CCN1C(=O)C(F)(F)Oc2cc(F)c(N3C(=O)C4=C(CCCC4)C3=O)cc21 |  |  |  |  |  | 274 nM | 11400 nM | 
4 | COC(Oc1ccccc1Oc1cc(-n2c(=O)cc(C(F)(F)F)n(C)c2=O)c(F)cc1Cl)C(=O)OC1CCCCC1 (centres unmarked) | 1.72e-07 M | 5.14e-08 M | 1.82e-06 M | 1.31e-06 M | 6.93e-07 M |  | 93.7 nM | 
5 | COC(=O)C(OC)Oc1ccccc1Oc1cc(-n2c(=O)cc(C(F)(F)F)n(C)c2=O)c(F)cc1Cl (centres unmarked) | 7.14e-08 M | 4.76e-08 M | 2.27e-08 M | 7.54e-08 M | 4.47e-08 M |  | 47 nM | 
6 | O=C(O)c1cc(Oc2ccc(C(F)(F)F)cc2Cl)ccc1[N+](=O)[O-] [ACIFLUORFEN] |  |  |  |  |  |  |  | 39% and 33% and 27%
7 | C#CCN1C(=O)COc2cc(F)c(N3C(=O)C4=C(CCCC4)C3=O)cc21 [Flumioxazin, flumioxazin] |  |  |  |  |  |  |  | 41% and 48% and 30%
